The numbers were not newly measured in US9562052B2, “Bicyclicpyridine derivatives” (Hoffmann-La Roche Inc., priority 2012, dated 2017), which cites them from elsewhere.

With `CCc1c(-c2ccccc2)c(-c2ccccc2)nn1-c1ccccc1-c1cccc(OCC(=O)O)c1` [BMS309403], in the data set on ob/ob mice, the “body weight and energy consumption” value is recorded as “no change”; the hepatic steatosis entry is on record as “reduction”. For the same compound, in the data set on ob/ob mice (clamp study), the “glucose uptake in muscle and adipose” value is listed as “increased”; the hepatic glucose production entry is reported as “reduction”. In addition, the atherosclerotic plaques formation entry with ApoE KO mice was “decrease”.
